Reference: patent publication US20120283313A1, “INHIBITION AND TREATMENT OF PROSTATE CANCER METASTASIS” (NORTHWESTERN UNIVERSITY, priority 2007, published 2012)
Entries after “also recorded” stand apart in the source; their conditions may differ. Where two headings read alike, the source gives them in different places.

Key:
p38 MAP kinase = assay: Western blot of primary tumor tissue for p38 MAP kinase; assay type: in vivo, mice; conditions: fresh frozen primary tumor tissue
[1] = system: human prostate cancer (PCa) cell lines; assay: cell invasion assay of PCa cell lines with genistein / siMEK4; assay type: cell-based
Excerpt: MEK expression was examined in six human prostate cancer (PCa) cell lines: PC3 and PC3-M metastatic PCa cells, 1532CPTX and 1542 CPTX immortalized localized PCa cells, and 1532 NPTX and 1542 NPTX immortalized normal epithelial cells. The last four cell lines are primary cells, are HPV transformed, and thus represent early stages of prostate carcinogenesis. They provide representative members of the metastatic phenotype, as well as members of early state phenotypes. […] All six cell lines also secrete as well as respond to TGFβ, a regulator of cell motility that plays a role in PCa cell invasiveness.
Assays were conducted using methods as described in Craft et al. (2008, Mol. Pharmocol., 73(1):235-242; herein incorporated by reference in its entirety).

MMP-2 = assay: Phase 2 trial: MMP-2 transcript levels by LCM and qRT/PCR; assay type: in vivo, human; conditions: normal prostate epithelial cells, 2 mg genistein/kg/day, normalized to GAPDH
[2] = system: prostate epithelial cells; assay: Phase 2 trial: nuclear morphology of prostate epithelial cells; assay type: in vivo, human; conditions: men, genistein treated vs controls
Excerpt: Though morphologically “normal,” these cells are present within organs with PCa, have pre-cancer molecular changes, and represent an appropriate target cell type for therapy that inhibits a process associated with PCa progression, in this case, development of the metastatic phenotype. […] These findings are consistent with its effects in vitro and in mice.

PC3M cells = assay: quantitative image analysis of nuclear morphology, mouse tissue; assay type: in vivo, mice; conditions: 250 mg genistein vs controls
Excerpt: Change in cell morphology is a generally recognized measure of change in cell adhesion. Compounds which increase cell adhesion of prostate cancer cells in vivo may inhibit prostate cancer metastasis. […] Quantitative image analysis according to established methods was used to measure in vivo changes in nuclear morphology in the prostate. (Bartels, et al., Prostate, 48:144-55, (2001); Boone, et al., Urology, 57:129-31 (2001); Bartels, et al., Anal. Quant. Cytol. Histol. 20:397-406 (1998); Bartels et al., Anal. Quant. Cytol. Histol. 20:389-96; Veltri, et al., J. Cell Biochem. Suppl., 151-57 (2000); herein incorporated by reference in their entireties).
Mouse: From the mouse experiment of Example 5, primary (prostate gland) and metastatic (local lymph nodes) tissue was Feulgen-stained, and the nuclear morphology of PC3M cells was quantitated on a ChromaVision ACIS® II Image Analysis System. […] Specifically, for lymph node: cell area increased by 19.5±2.1%, cell length by 9.1±1.1%, and cell width by 9.5±1.1% (p:S 0.01 for all). For primary tumor: cell length increased by 3.0±1.1% (p:S 0.05).

[3] = system: prostate epithelial cells; assay: Phase 2 trial: LCM and 12K gene array of prostate epithelial cells; assay type: in vivo, human
Excerpt: In particular, methodology was employed wherein prostate epithelial cells are selectively removed from human prostate tissue by laser capture microdissection (LCM), the resultant RNA linear amplified, and custom manufactured 12K gene arrays are probed. Ding, et al., Id.

human PC3-M PCa cells = assay: orthotopic PC3-M implantation metastasis model in athymic mice
[4] = men, 2 to 8 mg genistein/kg; cited from earlier work
MEK4 = assay: TGFβ stimulated phosphorylation of MEK4 in vivo; assay type: cell-based
Method: Phosphorylation by MEK4 (FIG. 4A) and phosphorylation of MEK4 (FIG. 7) was assayed. The Upstate Biotechnology MEK4 assay system was used to measure inhibition of MEK4 activity. Phosphorylation of MEK4 in vivo was assayed using standard techniques.

[5] = mice, free about a tenth of total
[6] = men, 2 mg genistein/kg/day for 1 month

O=c1c(-c2ccc(O)cc2)coc2cc(O)cc(O)c12 [genistein]
level of total p38 MAP kinase protein (p38 MAP kinase): total amount of p38 MAP kinase increased
phosphorylation of p38 MAP kinase (p38 MAP kinase): decreasing phosphorylation of p38 MAP kinase; also recorded: decreased its phosphorylation
effect of genistein on invasiveness when MEK4 expression suppressed by siMEK4 ([1]; PCa cells, genistein plus siMEK4): the effect of genistein was abrogated
invasion of PCa cells ([1]; early and late stage PCa cell lines, presence of genistein): inhibits invasion of both early and late stage PCa cells
MMP-2 transcript level, percent of controls (mean±SEM) (MMP-2): 24±4.1%
increase in length (nuclear morphology) [2]: 1.5±0.7%
increase in width (nuclear morphology) [2]: 2.7±0.7%
increase in area (nuclear morphology) ([2]; only a trend): 2.0±1.0%
increase in cell area (PC3M cells; lymph node): 19.5±2.1%
increase in cell length (PC3M cells; lymph node): 9.1±1.1%
increase in cell width (PC3M cells; lymph node): 9.5±1.1%
increase in cell length (PC3M cells; primary tumor): 3.0±1.1%
gene array expression level, mean (SE) ([3]; MALATI, genistein-treated subjects): 8.22 (0.87)
gene array expression level, mean (SE) ([3]; brain acid-soluble protein 1, genistein-treated subjects): 13.3 (0.34)
gene array expression level, mean (SE) ([3]; heat shock protein 90, genistein-treated subjects): 8.51 (0.5)
gene array expression level, mean (SE) ([3]; heparin cofactor II, genistein-treated subjects): 2.19 (0.21)
gene array expression level, mean (SE) ([3]; prostate acid phosphatase, genistein-treated subjects): 6.85 (0.49)
gene array expression level, mean (SE) ([3]; sorbitol dehydrogenase, genistein-treated subjects): 5.33 (0.59)
tumor volume (human PC3-M PCa cells; 0, 100, 250 mg genistein/kg chow): but not tumor volume
weight of mice (human PC3-M PCa cells; between dosing cohorts): no difference in the weight of mice between cohorts
peak concentration of total genistein [4]: 4.3 to 16.3 nM
TGFβ stimulated phosphorylation of MEK4 (MEK4): does not block TGF-β stimulated phosphorylation of MEK4 itself; also recorded: does not block such phosphorylation
estimated free concentration ([5]; 100 mg cohort): 29 nM
estimated free concentration ([5]; 250 mg cohort): 131 nM
trough concentration of free genistein, mean±SEM [6]: 26.6 ± 6.6 nM
